The NIST ThermoML archive (doi:10.1016/j.fluid.2018.08.012)
Values joined by “and” are separate entries in the source; they are usually repeats but may differ in a detail not shown here. Identical values can stand only once. ± gives the expanded uncertainty stated by the source.

Assay: mn = molality of the nth substance listed, in mol/kg
Conditions: Fluid (supercritical or subcritical phases), Vibrating tube method, m1 = 0.2322

S=C=S [carbon disulfide] + O=C=O
Conditions | mass density
349.43 K, 32815 kPa | 790.19 ± 0.9 kg/m3
349.43 K, 35294 kPa | 808.86 ± 0.94 kg/m3
349.43 K, 35296 kPa | 810.28 ± 0.96 kg/m3
374.78 K, 5066.1 kPa | 82.47 ± 0.14 kg/m3
374.78 K, 5070.7 kPa | 82.42 ± 0.14 kg/m3
374.78 K, 7581.5 kPa | 133.35 ± 0.24 kg/m3
374.78 K, 7585 kPa | 133.32 ± 0.24 kg/m3
374.78 K, 10086 kPa | 191.97 ± 0.41 kg/m3
374.78 K, 10088 kPa | 191.92 ± 0.41 kg/m3
374.78 K, 15040 kPa | 335.44 ± 0.88 kg/m3
374.78 K, 15062 kPa | 335.78 ± 0.89 kg/m3
374.78 K, 17568 kPa | 413.55 ± 1.1 kg/m3
374.78 K, 17587 kPa | 413.86 ± 1.1 kg/m3
374.78 K, 20094 kPa | 484.4 ± 1.3 kg/m3
374.78 K, 20111 kPa | 484.48 ± 1.3 kg/m3
374.78 K, 22615 kPa | 543.66 ± 1.3 kg/m3
374.78 K, 22634 kPa | 543.72 ± 1.3 kg/m3
374.78 K, 25138 kPa | 592.09 ± 1.2 kg/m3
374.78 K, 25153 kPa | 592 ± 1.2 kg/m3
374.78 K, 27657 kPa | 631.81 ± 1.2 kg/m3
374.78 K, 27672 kPa | 631.68 ± 1.2 kg/m3
374.78 K, 30176 kPa | 665.02 ± 1.2 kg/m3
374.78 K, 30185 kPa | 664.78 ± 1.2 kg/m3
374.78 K, 32689 kPa | 693.03 ± 1.2 kg/m3
374.78 K, 32690 kPa | 693.42 ± 1.2 kg/m3
374.78 K, 35184 kPa | 717.46 ± 1.2 kg/m3
374.78 K, 35192 kPa | 717.92 ± 1.2 kg/m3
400.5 K, 5077 kPa | 75.32 ± 0.12 kg/m3
400.5 K, 5080.3 kPa | 74.8 ± 0.13 kg/m3
400.5 K, 7594.6 kPa | 118.07 ± 0.2 kg/m3 and 118.35 ± 0.2 kg/m3
400.5 K, 10099 kPa | 166.1 ± 0.33 kg/m3
400.5 K, 10100 kPa | 165.54 ± 0.33 kg/m3
400.5 K, 15048 kPa | 272.65 ± 0.65 kg/m3
400.5 K, 15074 kPa | 273.42 ± 0.65 kg/m3
400.5 K, 17570 kPa | 330.78 ± 0.98 kg/m3
400.5 K, 17602 kPa | 331.7 ± 0.99 kg/m3
400.5 K, 20096 kPa | 388.17 ± 1.2 kg/m3
400.5 K, 20129 kPa | 389.15 ± 1.2 kg/m3
400.5 K, 22617 kPa | 441.87 ± 1.4 kg/m3
400.5 K, 22654 kPa | 442.82 ± 1.4 kg/m3
400.5 K, 25139 kPa | 490.19 ± 1.6 kg/m3
400.5 K, 25176 kPa | 491.09 ± 1.6 kg/m3
400.5 K, 27660 kPa | 532.79 ± 1.4 kg/m3
400.5 K, 27688 kPa | 533.55 ± 1.4 kg/m3
400.5 K, 30177 kPa | 569.95 ± 1.4 kg/m3
400.5 K, 30206 kPa | 570.64 ± 1.4 kg/m3
400.5 K, 32686 kPa | 602.4 ± 1.4 kg/m3
400.5 K, 32712 kPa | 602.99 ± 1.4 kg/m3
400.5 K, 35192 kPa | 631.01 ± 1.4 kg/m3
400.5 K, 35205 kPa | 631.44 ± 1.4 kg/m3
